Assay results: publication PMC6968685 (Journal of Enzyme Inhibition and Medicinal Chemistry, 2020)

Assays:
[1] = test system: P. falciparum CQ-resistant strain W2; experiment: In vitro antiplasmodial activity, SYBR Green I fluorescence-based method, strain W2; type: cell-based; conditions: Plasmodium falciparum; chloroquine-resistant strain W2; 48 h incubation; read-out: P. falciparum strains IC50 values, W2
Procedure, shortened: (§1)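 P. falciparum 3D7 and W2 cultured in human erythrocytes in RPMI with 0.5% Albumax I at 37 °C, exposed 48 h to compounds tested […]. Parasite DNA read by SYBR Green I fluorescence (ex 485/em 535 nm); IC50 by non-linear regression, mean of three independent experiments.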

[2] = test system: P. falciparum CQ-sensitive strain 3D7; experiment: In vitro antiplasmodial activity, SYBR Green I fluorescence-based method, strain 3D7; type: cell-based; conditions: Plasmodium falciparum; chloroquine-sensitive strain 3D7; 48 h incubation; read-out: P. falciparum strains IC50 values, 3D7
Procedure, shortened: as §1

[3] = test system: L. donovani (MHOM/IN/00/DEVI) promastigotes; experiment: In vitro antileishmanial activity, MTT assay on promastigotes; type: cell-based; conditions: Leishmania donovani, 72 h incubation, ≥10 = no activity noted at the highest concentration tested
Procedure, shortened: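 Log-phase L. donovani MHOM/IN/00/DEVI promastigotes (10^6/ml, Schneider's + 20% FCS) were exposed to graded compound concentrations (DMSO <0.5% v/v) for 72 h at 27 °C, in duplicate. Growth measured by MTT reduction (4 h, A570 nm); IC50 obtained by regression.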

[4] = test system: T. brucei brucei AnTat 1.9; experiment: In vitro antitrypanosomal activity, Alamar Blue assay; type: cell-based; conditions: Trypanosoma brucei; slender bloodstream trypomastigotes, AnTat 1.9 strain; read-out: Trypanosoma brucei brucei IC50 values, Trypanos Antat 1.9
Procedure, shortened: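 Bloodstream parasites (2000/well) in supplemented MEM with 20% horse serum exposed to compound in duplicate for 69 h at 37 °C, then Alamar Blue added for 5 h; fluorescence read at ex 530/em 590 nm. IC50 by nonlinear regression, from three independent experiments.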

[5] = Cytotoxicity evaluation, MTT; type: cell-based, human; conditions: human
Procedure, shortened: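 HepG2 hepatocarcinoma cells exposed to compound in duplicate, then viability measured by MTT reduction (0.5 mg/ml), formazan dissolved in DMSO and read at 570 nm against 630 nm. Viability expressed as percent of untreated cells; CC50 taken from dose-response curve, doxorubicin as positive control.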

[6] = test system: Plasmodium telomeric sequence FPf1T G-quadruplex; experiment: FRET melting experiments, FPf1T; type: binding, P. falciparum; conditions: 2 μM compound, 0.2 μM oligonucleotide, K+ conditions
Method: (§2) These were performed with dual-labelled oligonucleotides mimicking the Plasmodium telomeric sequences FPf1T [FAM-5′(GGGTTTA)3-GGG3′-TAMRA] and FPf8T [FAM-5′ (GGGTTCA)3GGG3′-TAMRA], the Trypanosoma 9 and 11 chromosomic sequence FTrypBT (also named FEBR1T) [FAM-5′[…]3′-TAMRA], the human telomeric sequence F21T [FAM-(GGGTTA)3-GGG3′-TAMRA], and the human duplex sequence FdxT [FAM5′-[…]-hexaethyleneglycol-[…]3′-TAMRA][51]^,[52]. The oligonucleotides were pre-folded in 10 mM lithium cacodylate buffer (pH 7.2), with 10 mM KCl and 90 mM LiCl (K^+condition). The FAM emissions were recorded at 516 nm using a 492-nm excitation wavelength in the absence and presence of a single compound as a function of temperature (25–95 °C) in 96-well microplates by using a Stratagene MX3000P real-time PCR device at a rate of 1 °C·min^−1. Data were normalised between 0 and 1, and the required temperature for half-denaturation of oligonucleotides corresponding to the emission value of 0.5 was taken as the Tm. […] For each compound, three independent experiments were carried out.

[7] = test system: Plasmodium telomeric sequence FPf8T G-quadruplex; experiment: FRET melting experiments, FPf8T; type: binding, P. falciparum; conditions: 2 μM compound, 0.2 μM oligonucleotide, K+ conditions
Method: as §2

[8] = test system: Trypanosoma 9 and 11 chromosomic sequence FTrypBT (FEBR1T) G-quadruplex; experiment: FRET melting experiments, FtrypBT; type: binding, T. brucei brucei; conditions: 2 μM compound, 0.2 μM oligonucleotide, K+ conditions
Method: as §2

[9] = test system: human telomeric sequence F21T G-quadruplex; experiment: FRET melting experiments, F21T; type: binding; conditions: 2 μM compound, 0.2 μM oligonucleotide, K+ conditions
Method: as §2

[10] = test system: human duplex sequence FdxT; experiment: FRET melting experiments, FdxT duplex control; type: binding; conditions: 2 μM compound, 0.2 μM oligonucleotide, K+ conditions
Method: as §2

[11] = test system: F21T (DNA, G4) GGGTTAGGGTTAGGGTTAGGG; experiment: FRET melting; conditions: 10 mM K+, 90 mM Li+; 10 mM lithium cacodylate pH 7.2; 2 µM compound, 0.2 µM oligonucleotide
[12] = test system: FPf1T (DNA, G4) GGGTTTAGGGTTTAGGGTTTAGGG; experiment: FRET melting; conditions: 10 mM K+, 90 mM Li+; 10 mM lithium cacodylate pH 7.2; 2 µM compound, 0.2 µM oligonucleotide
[13] = test system: FPf8T (DNA, G4) GGGTTCAGGGTTCAGGGTTCAGGG; experiment: FRET melting; conditions: 10 mM K+, 90 mM Li+; 10 mM lithium cacodylate pH 7.2; 2 µM compound, 0.2 µM oligonucleotide
[14] = test system: FtrypBT (FEBR1T; FtryBT) (DNA, G4) GGGCAGGGGGTGATGGGGAGGAGCCAGGG; experiment: FRET melting; conditions: 10 mM K+, 90 mM Li+; 10 mM lithium cacodylate pH 7.2; 2 µM compound, 0.2 µM oligonucleotide

COc1ccc2c(-c3ccc(CNCCCCN(C)C)cc3)nc(-c3ccc(CNCCCCN(C)C)cc3)nc2c1 [Compound 3m, 7-Methoxy-2,4-bis{4-[(4-dimethylaminobutyl)aminomethyl]phenyl}quinazoline] gave an IC50 [1] of 4220 ± 550 nM, an IC50 [2] of 1180 ± 430 nM and an IC50 [3] of at least 10000 nM. For the same compound, the IC50 [4] was 750 ± 60 nM, the CC50 at 72 h [5] was 25100 ± 1200 nM and the “ΔTm FPf1T” value [6] was 18.3 ± 0.7 °C. The “ΔTm FPf8T” value [7] was 17.8 ± 0.5 °C, the “ΔTm FtrypBT” value [8] was 13.8 ± 0.5 °C and the “ΔTm F21T” value [9] was 19.4 ± 0.4 °C. For the same compound, the “ΔTm FdxT” value [10] was 1.7 ± 0.3 °C.
COc1ccc2c(-c3ccc(CNCCCCN(C)C)cc3)nc(-c3ccc(CNCCCCN(C)C)cc3)cc2c1 gave a ΔTm [11] of 23.2 ± 0.6 °C.
For CN1CCN(CCNCc2ccc(-c3cc(-c4ccc(CNCCN5CCN(C)CC5)cc4)c4ccccc4n3)cc2)CC1 [Compound 1f, 2,4-Bis{4-[(2–(4-methylpiperazin-1-yl)ethyl)aminomethyl]phenyl}quinoline], the IC50 [1] was 130 ± 24 nM, the IC50 [2] was 2420 ± 270 nM and the IC50 [3] was at least 10000 nM. For the same compound, the IC50 [4] was 990 ± 132 nM, the CC50 at 72 h [5] was 4090 ± 300 nM and the “ΔTm FPf1T” value [6] was 10.7 ± 1.0 °C. The “ΔTm FPf8T” value [7] was 11.0 ± 0.5 °C, the “ΔTm FtrypBT” value [8] was 9.4 ± 0.6 °C and the “ΔTm F21T” value [9] was 9.5 ± 2.9 °C. The “ΔTm FdxT” value [10] was −0.1 ± 0.2 °C.
CN(C)CCNCc1ccc(-c2cc(-c3ccc(CNCCN(C)C)cc3)c3ccccc3n2)cc1 [Compound 1c, 2,4-Bis{4-[(2-dimethylaminoethyl)aminomethyl]phenyl}quinoline] showed an IC50 [1] of 340 ± 37 nM, an IC50 [2] of 32 ± 4 nM and an IC50 [3] of at least 10000 nM. For the same compound, the IC50 [4] was 1480 ± 85 nM, the CC50 at 72 h [5] was 3100 ± 900 nM and the “ΔTm FPf1T” value [6] was 2.3 ± 0.7 °C. For the same compound, the “ΔTm FPf8T” value [7] was 2.7 ± 0.2 °C, the “ΔTm FtrypBT” value [8] was 2.6 ± 0.4 °C and the “ΔTm F21T” value [9] was 2.8 ± 1.3 °C. The “ΔTm FdxT” value [10] was −0.5 ± 0.4 °C.
In the case of c1cc(CNCCN2CCOCC2)cc(-c2nc(-c3cccc(CNCCN4CCOCC4)c3)c3ccccc3n2)c1, the ΔTm [12] is reported as 0.5 ± 0.3 °C, the ΔTm [13] is reported as 0.5 ± 0.4 °C and the ΔTm [14] is reported as 0.6 ± 0.1 °C. For the same compound, the ΔTm [11] was 0.1 ± 0.1 °C.
In the case of CN1CCN(CCCNCc2ccc(-c3cc(-c4ccc(CNCCCN5CCN(C)CC5)cc4)c4ccccc4n3)cc2)CC1 [Compound 1e, 2,4-Bis{4-[(3–(4-methylpiperazin-1-yl)propyl)aminomethyl]phenyl}quinoline], the IC50 [1] is reported as 1290 ± 63 nM, the IC50 [2] is reported as 470 ± 60 nM and the IC50 [3] is reported as at least 10000 nM. For the same compound, the IC50 [4] was 1780 ± 89 nM, the CC50 at 72 h [5] was 11300 ± 500 nM and the “ΔTm FPf1T” value [6] was 9.4 ± 0.6 °C. The “ΔTm FPf8T” value [7] was 9.2 ± 0.5 °C, the “ΔTm FtrypBT” value [8] was 7.4 ± 0.1 °C and the “ΔTm F21T” value [9] was 11.3 ± 1.1 °C. The “ΔTm FdxT” value [10] was 0.1 ± 0.1 °C.
COc1ccc2cc(-c3ccc(CNCCCCN(C)C)cc3)nc(-c3ccc(CNCCCCN(C)C)cc3)c2c1 [Compound 2e, 7-Methoxy-1,3-bis{4-[(4-dimethylaminobutyl)aminomethyl]phenyl}isoquinoline] showed an IC50 [1] of 6060 ± 640 nM, an IC50 [2] of 4410 ± 510 nM and an IC50 [3] of at least 10000 nM. The IC50 [4] was 550 ± 122 nM, the CC50 at 72 h [5] was 9570 ± 1000 nM and the “ΔTm FPf1T” value [6] was 27.3 ± 1.1 °C. For the same compound, the “ΔTm FPf8T” value [7] was 26.6 ± 0.2 °C, the “ΔTm FtrypBT” value [8] was 24.0 ± 0.3 °C and the “ΔTm F21T” value [9] was 22.2 ± 0.1 °C. The “ΔTm FdxT” value [10] was 4.1 ± 0.3 °C.
COc1ccc2nc(-c3ccc(CNCCN(C)C)cc3)nc(-c3ccc(CNCCN(C)C)cc3)c2c1 [Compound 3j, 6-Methoxy-2,4-bis{4-[(2-dimethylaminoethyl)aminomethyl]phenyl}quinazoline] gave an IC50 [1] of 1230 ± 150 nM, an IC50 [2] of 560 ± 20 nM and an IC50 [3] of at least 10000 nM. The IC50 [4] was 1040 ± 85 nM, the CC50 at 72 h [5] was 3120 ± 200 nM and the “ΔTm FPf1T” value [6] was 3.4 ± 0.4 °C. The “ΔTm FPf8T” value [7] was 3.1 ± 0.4 °C, the “ΔTm FtrypBT” value [8] was 4.4 ± 0.5 °C and the “ΔTm F21T” value [9] was 7.2 ± 0.4 °C. The “ΔTm FdxT” value [10] was −0.4 ± 0.2 °C.
